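Values below derive from 48-hour exposures of cells grown in 96-well plates, with endpoints linearly interpolated between the two concentrations bracketing the appropriate inhibition level. TGI denotes the concentration required for complete inhibition of growth.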
Columns and labels:
Experiment in all cases: growth of human tumour cells (NCI), 48 h
UO-31 renal = tested on: UO-31 renal
PC-3 prostate = tested on: PC-3 prostate
MDA-MB-435 = tested on: MDA-MB-435
U251 CNS = tested on: U251 CNS
OVCAR-5 ovarian = tested on: OVCAR-5 ovarian
SF-268 CNS = tested on: SF-268 CNS
OVCAR-3 ovarian = tested on: OVCAR-3 ovarian
KM12 colon = tested on: KM12 colon
SNB-75 CNS = tested on: SNB-75 CNS
786-0 renal = tested on: 786-0 renal
MDA-MB-231 breast = tested on: MDA-MB-231 breast
RXF 393 renal = tested on: RXF 393 renal
A498 renal = tested on: A498 renal
SW-620 colon = tested on: SW-620 colon
SK-OV-3 ovarian = tested on: SK-OV-3 ovarian
BT-549 breast = tested on: BT-549 breast
SK-MEL-5 melanoma = tested on: SK-MEL-5 melanoma
HCC-2998 colon = tested on: HCC-2998 colon

SMILES | TGI (UO-31 renal) | TGI (PC-3 prostate) | TGI (MDA-MB-435) | TGI (U251 CNS) | TGI (OVCAR-5 ovarian) | TGI (SF-268 CNS) | TGI (OVCAR-3 ovarian) | TGI (KM12 colon) | TGI (SNB-75 CNS) | TGI (786-0 renal) | TGI (MDA-MB-231 breast) | TGI (RXF 393 renal) | TGI (A498 renal) | TGI (SW-620 colon) | TGI (SK-OV-3 ovarian) | TGI (BT-549 breast) | TGI (SK-MEL-5 melanoma) | TGI (HCC-2998 colon)
CC(Cn1c2c(c3cc(O)ccc31)CCc1ccc(O)cc1-2)N(C)C (stereo not drawn) | 28.3 µM | 27.6 µM | 41 µM | > 100 µM | 37.2 µM | 53.2 µM | 30.1 µM | 29.9 µM | 51.2 µM | 35.9 µM | 59.4 µM | 53.2 µM | 53.7 µM | 55 µM | 77 µM | 36.8 µM |  | 
O=C(Nc1ccccc1)OCCN=C1c2ccccc2CCc2ccccc21 | 43.7 µM | 82.8 µM | 43.6 µM | 32.1 µM | 63.5 µM | 75.4 µM | 44.3 µM | 33.1 µM | > 100 µM | > 100 µM | 37.1 µM | 50.2 µM |  | > 100 µM | 92.3 µM | 42.1 µM | 27.3 µM | 45.9 µM
C1CSCC2(COC2)CSCCSCC2(COC2)CS1 | > 100 µM | > 100 µM | > 100 µM | > 100 µM | > 100 µM | > 100 µM | > 100 µM | > 100 µM | > 100 µM | > 100 µM | > 100 µM |  |  | > 100 µM | > 100 µM | > 100 µM | > 100 µM | > 100 µM
Cc1cc(NS(=O)(=O)c2ccc(N=[N+]([O-])c3ccc(S(=O)(=O)Nc4cc(C)on4)cc3)cc2)no1 | > 100 µM | > 100 µM | > 100 µM | > 100 µM | > 100 µM | > 100 µM | > 100 µM |  | > 100 µM | > 100 µM | > 100 µM | > 100 µM | > 100 µM |  | > 100 µM | > 100 µM | > 100 µM | 
NC(=O)[N+](=CC(=S)Nc1ccccc1Cl)C(N)=O | > 100 µM | > 100 µM | > 100 µM | > 100 µM | > 100 µM | > 100 µM | > 100 µM | > 100 µM |  | > 100 µM | > 100 µM | > 100 µM |  | > 100 µM | > 100 µM | > 100 µM | > 100 µM | > 100 µM
CC(C)OP(=O)(OC(C)C)C(C)(C)O | > 100 µM | > 100 µM | > 100 µM | > 100 µM | > 100 µM | > 100 µM | > 100 µM | > 100 µM | > 100 µM | > 100 µM | > 100 µM | > 100 µM |  | > 100 µM | > 100 µM | > 100 µM | > 100 µM | > 100 µM
CC1=CCC(C(C)(C)NC(=O)c2ccccc2)C/C1=N/O (stereo not drawn) | > 100 µM | > 100 µM | > 100 µM | > 100 µM | > 100 µM | > 100 µM | > 100 µM | > 100 µM | > 100 µM | > 100 µM | > 100 µM |  |  | > 100 µM | > 100 µM | > 100 µM | > 100 µM | > 100 µM
C[C@@H]1CC[C@H]2[C@H](C)C(OC3O[C@@H]4O[C@@]5(C)CC[C@H]6[C@H](C)CC[C@@H]([C@@H]3C)[C@@]46O5)O[C@@H]3O[C@@]4(C)CC[C@@H]1[C@]32O4 (stereo partly drawn) |  | > 100 µM | > 100 µM | > 100 µM | > 100 µM | > 100 µM | > 100 µM | > 100 µM | > 100 µM | > 100 µM | > 100 µM |  | > 100 µM | > 100 µM | > 100 µM | > 100 µM | > 100 µM | > 100 µM
COC(=O)C(=O)C(C(=O)C(=O)Nc1ccc(C)cc1C)c1nc2ccc(Cl)cc2[nH]c1=O (stereo not drawn) | > 100 µM | > 100 µM | > 100 µM | > 100 µM | > 100 µM | > 100 µM | > 100 µM | > 100 µM | > 100 µM | > 100 µM | > 100 µM | > 100 µM |  | > 100 µM | > 100 µM | > 100 µM | > 100 µM | > 100 µM
CC(C)(O)c1cc2c(cc1C(C)(C)O)-c1ccccc1-2 |  | > 100 µM | > 100 µM | > 100 µM | > 100 µM | > 100 µM | > 100 µM | > 100 µM | > 100 µM | > 100 µM | > 100 µM | > 100 µM | > 100 µM | > 100 µM |  | > 100 µM | > 100 µM | > 100 µM
Cn1nnc2c3c(N(CCO)CCO)ccnc3ccc21 | > 100 µM | > 100 µM | > 100 µM |  | > 100 µM | > 100 µM | > 100 µM | > 100 µM | > 100 µM | > 100 µM | > 100 µM | > 100 µM |  | > 100 µM | > 100 µM | > 100 µM | > 100 µM | 91.2 µM
